Experimental data taken from ChEMBL document CHEMBL5728227, “Substituted pyrazole derivatives as selective CDK12/13 inhibitors” (2021).

Molecular target: Cyclin-dependent kinase 7 (Homo sapiens, UniProt P50613)
Test: Biochemical Assay for CDK7: The inhibitory activity of the test compounds was assessed by the LANCE TR-FRET assay, which detects the ATP-dependent phosphorylation of an ULight-myelin basic protein (MBP) substrate peptide (100 nM) by CDK7 (10 nM). Briefly, the enzyme reaction was run in reaction buffer (20 mM HEPES (pH 7.5), 10 mM MgCl2, 0.01% Triton x, 100 μM Sodium Orthovanadate, 1 mM DTT). The assay was performed in 384-well plate. The end concentration of the ATP substrate was 1 mM/100 μM, and that of the ULight-MBP substrate peptide was 100 nM, and of CDK7 was 10 nM. Pre-incubation of the compound and enzyme was performed for 60 min at room temperature. After 60 min incubation at room temperature, the reaction was terminated by the addition of 40 mM EDTA and 1 nM Eu-labeled anti-phospho-MBP-binding protein antibody in the buffer. Time-resolved fluorescence (excitation, 320 nm; emission donor, 615 nm; emission acceptor, 665 nm) was monitored by using 2030 multilabel reader Victor5 (PerkinElmer). The readout was calculated as (acceptor counts/donor counts)×1000. The IC50 values were derived by fitting a sigmoidal dose-response curve to a plot of assay readout over inhibitor concentration. All fits were computed with the program Prism 5.03 (Graph Pad Software, San Diego, Calif.).

Chain of Cyclin-dependent kinase 7 (P50613 whole entry): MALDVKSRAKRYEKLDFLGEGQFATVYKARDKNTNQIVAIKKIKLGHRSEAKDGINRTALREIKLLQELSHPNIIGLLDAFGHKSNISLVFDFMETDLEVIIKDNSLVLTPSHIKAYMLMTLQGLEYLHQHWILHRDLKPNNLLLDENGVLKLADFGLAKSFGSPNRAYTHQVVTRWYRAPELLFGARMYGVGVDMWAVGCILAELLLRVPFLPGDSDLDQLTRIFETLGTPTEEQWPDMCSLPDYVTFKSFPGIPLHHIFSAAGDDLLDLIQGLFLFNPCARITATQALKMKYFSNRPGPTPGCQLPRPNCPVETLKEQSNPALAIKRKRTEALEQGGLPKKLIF

- IC50: 1730 nM
SMILES: C=CC(=O)N1CCC=C(c2ccc(CC(=O)Nc3cc(C4CC4)[nH]n3)cn2)C1
